According to article PMC5298233, “Substrate-analogous inhibitors exert antimalarial action by targeting the Plasmodium lactate transporter PfFNT at nanomolar scale” (PLoS Pathogens, 2017):
Like-named read-outs stand apart in the source and are kept apart here.

What was measured:
P. falciparum 3D7 = test: Viability of cultured P. falciparum parasites (FACS parasitemia); format: cell-based, Plasmodium falciparum; settings: for IC50: Plasmodium falciparum, 3D7, 48 h, read-out: IC50 (P. falciparum 3D7)
PfFNT [1] = biological target: T1, PfFNT (Plasmodium falciparum, UniProt O77389); test: cell-based
T1 sequence (O77389 whole entry): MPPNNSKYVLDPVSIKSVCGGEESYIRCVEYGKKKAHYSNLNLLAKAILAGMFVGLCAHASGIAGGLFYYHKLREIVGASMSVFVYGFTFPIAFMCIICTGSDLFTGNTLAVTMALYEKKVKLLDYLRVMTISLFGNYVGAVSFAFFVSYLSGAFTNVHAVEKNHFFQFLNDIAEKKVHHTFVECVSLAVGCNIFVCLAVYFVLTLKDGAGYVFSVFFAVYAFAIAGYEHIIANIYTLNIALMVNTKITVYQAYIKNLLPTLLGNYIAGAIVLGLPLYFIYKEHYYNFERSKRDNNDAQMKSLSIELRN

[2] = system: MMV007839 resistant 3D7 parasites; test: microbe, parasite or virus in culture; format: cell-based, Plasmodium falciparum; settings: for IC50: Plasmodium falciparum, 3D7, read-out: IC50 (P. falciparum resist.)
PfFNT [3] = biological target: T1, PfFNT; test: cell-based; settings: for hit identification: inhibition of PfFNT transport at 10 μM: 1 mM substrate gradient, compound added 20 min prior; for inhibition at 10 µM: read-out: % Inhib.
BbFNT = biological target: T2, BbFNT (Babesia bovis, UniProt A7AX62); test: cell-based; settings: wildtype BbFNT; read-out: IC50 (BbFNT / yeast)
T2 sequence (A7AX62 1-279): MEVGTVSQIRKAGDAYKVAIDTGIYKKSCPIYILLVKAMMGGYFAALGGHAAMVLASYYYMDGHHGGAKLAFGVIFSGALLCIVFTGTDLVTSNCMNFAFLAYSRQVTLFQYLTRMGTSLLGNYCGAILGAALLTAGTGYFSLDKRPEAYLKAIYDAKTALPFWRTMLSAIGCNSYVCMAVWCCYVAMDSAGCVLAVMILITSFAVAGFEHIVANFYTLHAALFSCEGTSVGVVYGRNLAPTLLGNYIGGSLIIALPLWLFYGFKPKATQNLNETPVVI

rat MCT1 = biological target: T3, rat MCT1 (Rattus norvegicus, UniProt P53987); test: L-lactate transport inhibition of MCT1 expressed in yeast; format: cell-based
T3 sequence (P53987 1-494): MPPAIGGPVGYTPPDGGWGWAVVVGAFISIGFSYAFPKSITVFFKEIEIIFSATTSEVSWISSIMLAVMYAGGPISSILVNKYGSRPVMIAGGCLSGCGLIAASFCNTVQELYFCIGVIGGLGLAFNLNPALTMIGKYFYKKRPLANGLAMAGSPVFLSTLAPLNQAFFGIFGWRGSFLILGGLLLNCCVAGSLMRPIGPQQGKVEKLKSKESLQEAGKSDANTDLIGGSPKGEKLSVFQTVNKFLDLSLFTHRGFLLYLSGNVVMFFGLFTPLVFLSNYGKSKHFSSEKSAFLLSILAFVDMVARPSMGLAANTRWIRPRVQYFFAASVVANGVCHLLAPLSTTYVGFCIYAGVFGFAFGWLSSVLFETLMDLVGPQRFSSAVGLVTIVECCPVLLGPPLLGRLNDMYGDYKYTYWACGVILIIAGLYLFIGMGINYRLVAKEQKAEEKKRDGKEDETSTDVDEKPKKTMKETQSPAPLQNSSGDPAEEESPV

BbFNT S93G = biological target: T4, BbFNT S93G (Babesia bovis, UniProt A7AX62, S93G); test: cell-based; settings: read-out: IC50 (BbFNT S93G / yeast)
T4 sequence (A7AX62 1-279 S93G): T2 sequence (A7AX62 1-279)

PfFNT [4] = biological target: T1, PfFNT; settings: earlier determined; read-out: affinity of lactate to PfFNT (Km); cited from earlier work
PfFNT [5] = biological target: T1, PfFNT; settings: read-out: IC50 on PfFNT; cited from earlier work
[6] = IC50 (PfFNT / yeast), 20 min incubation with compound, 1 mM L-lactate
[7] = IC50 (PfFNT / yeast), half-maximal lactate transport rate, 20 min treatment

| Compound | IC50 (P. falciparum 3D7) | IC50 (PfFNT [1]; [6]) | other results |
| --- | --- | --- | --- |
| CCO/C(=C\C(=O)c1ccc(OC)cc1)C(F)(F)C(F)(F)F [BH-296 ethyl ester prodrug] | 9.3 ± 1.4 µM |  |  |
| COc1ccc(C(=O)/C=C(\O)C(F)(F)C(F)(F)F)cc1 [BH-296] | 3.6 ± 0.2 µM | 0.14 ± 0.01 µM | less efficient in P. falciparum culture (P. falciparum 3D7; compared with PfFNT block in yeast / MMV007839): 25 times; shift in IC50, resistant versus non-resistant parental parasites [2]: 2.5 fold; IC50 [2]: 8.6 µM |
| O=C1CC(O)(C(F)(F)C(F)(F)F)Oc2ccccc21 (stereo not drawn) [MMV000972] | 1.7 µM |  | IC50 (PfFNT [1]; [7]): 0.17 µM; hit identification: inhibition of PfFNT transport at 10 μM (PfFNT [3]): fully blocked; inhibition at 10 µM (PfFNT [3]): 102% |
| COc1ccc2c(c1)OC(O)(C(F)(F)C(F)(F)F)CC2=O (stereo not drawn) [MMV007839] |  |  | Ki (PfFNT [1]): 1.4 µM; IC50 (PfFNT [1]; [7]): 0.17 µM; IC50 (PfFNT [1]; IC50 (PfFNT / yeast; 24 h treatment), compound added 24 h before the assay, last 18 h at 4°C): 0.015 µM; higher affinity than the physiological substrate lactate (PfFNT [1]; Ki versus lactate Km): > 60,000 times; re-gain of PfFNT transport activity after removal of inhibitor (dissociation) (PfFNT [1]; full and half-maximal inhibition, wash-out, up to 2 h): does not re-gain activity within 2 h; IC50 (BbFNT): 150 µM; reduction of parasite growth (P. falciparum 3D7; incubation at IC90 over night): 70%; reduction of parasite growth (P. falciparum 3D7; short period incubation at IC90 for 1 h): 17%; IC50 [2]: 35 µM; hit identification: inhibition of PfFNT transport at 10 μM (PfFNT [3]): fully blocked; inhibition at 10 µM (PfFNT [3]): 99.1%; IC50 (rat MCT1): 55 µM; IC50 (BbFNT S93G): 11 µM |
| CC(=O)C=C(O)C(F)(F)C(F)(F)F [Pharmacophore, 5,5,6,6,6-pentafluoro-4-hydroxyhex-3-en-2-one] |  | 1.9 µM |  |
| COc1ccc2c(=O)cc(C(F)(F)C(F)(F)F)oc2c1 [[1]] |  | > 1000 µM |  |
| COc1ccc2c(c1)OC(C)(C)CC2=O [[2]] |  | > 1000 µM |  |
| O=C1CC(O)(C(F)(F)C(F)F)Oc2ccc(Cl)cc21 (stereo not drawn) [[3]] |  | 48 ± 2 µM |  |
| COc1ccc2c(c1)C(=O)CC(O)(C(F)F)O2 (stereo not drawn) [[4]] |  | > 1000 µM |  |
| COc1ccc2c(c1)OC(O)(C(F)(F)C(F)(F)F)C(C)C2=O (stereo not drawn) [[5]] |  | 145 ± 8 µM |  |
| O/N=C1\CC(O)(C(F)(F)F)Oc2ccc(Cl)cc21 (stereo not drawn) [[6]] |  | 315 ± 63 µM |  |
| O=C1CC(O)(C(F)F)Oc2ccccc21 (stereo not drawn) [[7]] |  | 280 ± 32 µM |  |
| COc1ccc2c(c1)OC(O)(C(F)(F)F)CC2=O (stereo not drawn) [[8]] |  | 1.1 ± 0.1 µM |  |
| COc1ccc2c(c1)OC(O)(C(F)(F)C(F)F)CC2=O (stereo not drawn) [[9]] |  | 0.36 ± 0.4 µM |  |
| COc1ccc2c(c1)OC(O)(C(F)(F)C(F)(F)C(F)(F)F)CC2=O (stereo not drawn) [[10]] | 0.47 ± 0.1 µM | 0.25 ± 0.02 µM |  |
| O=C1CC(O)(C(F)(F)C(F)(F)C(F)(F)C(F)(F)F)Oc2ccccc21 (stereo not drawn) [[11]] |  | 4.9 ± 0.2 µM |  |
| O=C1CC(O)(C(F)(F)C(F)(F)F)Oc2cc(Cl)ccc21 (stereo not drawn) [[12]] | 0.28 ± 0.05 µM | 0.12 ± 0.01 µM |  |
| CCOc1ccc2c(c1)OC(O)(C(F)(F)C(F)(F)F)CC2=O (stereo not drawn) [[13]] | 0.05 µM | 0.24 ± 0.01 µM |  |
| CC(C)Oc1ccc2c(c1)OC(O)(C(F)(F)C(F)(F)F)CC2=O (stereo not drawn) [[14]] | 0.1 µM | 0.4 ± 0.01 µM |  |
| O=C1CC(O)(C(F)(F)C(F)(F)F)Oc2cc(OCc3ccccc3)ccc21 (stereo not drawn) [[15]] |  | 0.88 ± 0.03 µM |  |
| CC(O)C(=O)O (stereo not drawn) [lactate] |  |  | Km (PfFNT [4]): 87 mM |
| O=C(O)c1cccnc1Nc1cccc(C(F)(F)F)c1 [niflumic acid] |  |  | IC50 (PfFNT [5]): > 100 µM |
